Each structure is given as a SMILES string.

The first test concerns cucumber powdery mildew fungus (Sphaerotheca fuliginea). Kind of test: Cucumber powdery mildew control test, foliar spray on cucumber (Test Examples 6, 12, Comparative Test Example). In kind it is in vivo. The following applies: 200 ppm, cucumber (SAGAMI HANJIRO), 8 days after inoculation.
As for `CC(=NOCc1c(C)cccc1-n1nnn(C)c1=O)c1cccc(C(F)(F)F)c1` [1-{3-methyl-2-[1-(3-trifluoromethylphenyl)ethylideneaminooxymethyl]phenyl}-4-methyl-1,4-dihydrotetrazol-5-one], the “area of lesion spots relative to that on an untreated plant” value was at most 30%.

For `CC(=NOCc1cccc(C)c1-n1nnn(C)c1=O)c1cccc(C(F)(F)F)c1` [1-methyl-4-{2-methyl-6-[1-(3-trifluoromethylphenyl)ethylideneaminooxymethyl]phenyl}-1,4-dihydrotetrazol-5-one], the “area of lesion spots relative to that on an untreated plant” value was at least 70%.

For another test, the system named is diamondback moth (Plutella xylostella). Kind of test: Diamondback moth mortality test on sprayed cabbage (Test Example 15). In kind it is in vivo. The following applies: 120 h, 20 mL/cup sprayed on cabbage, second-instar larvae, 25° C., after 5 days. The procedure: Each of formulations of the present compounds 6, 9, 26, 28, 31, 32, 33, 36, 71, 109, 114, 115, 125, and 149 obtained in Formulation Example 6 was diluted with water so that the concentration of the active ingredient is controlled to 500 ppm to prepare a test spraying solution. Meanwhile, the above test chemical solution was sprayed over three-leaf stage cabbage sowed in a polyethylene cup in the proportion of 20 mL/cup. After drying the chemical solution, stem and leaf portions were cut off and put in a 50 mL cup and five second-instar larvae of diamondback moth (Plutella xylostella) were released, and then the cup was capped. The cup was stored at 25° C. and, after 5 days, the number of surviving worms was counted and mortality was determined by the following equation. Mortality (%)=[(Number of dead insects)/(Number of tested insects)]×100
As usually defined, the mortality is the percentage killed. Regarding `CC(=NOCc1c(-n2nnn(C)c2=O)cccc1C(F)(F)F)c1ccc2c(c1)CCC2` [present compound 115, 1-[2-(1-indan-5-ylethylideneaminooxymethyl)-3-trifluoromethylphenyl]-4-methyl-1,4-dihydrotetrazol-5-one], the mortality at 500 ppm was at least 80%.

As to `CC(=NOCc1c(Cl)cccc1-n1nnn(C)c1=O)c1cc(F)cc(F)c1` [present compound 28, 1-{3-chloro-2-[1-(3,5-difluorophenyl)ethylideneaminooxymethyl]phenyl}-4-methyl-1,4-dihydrotetrazol-5-one], the mortality at 500 ppm is at least 80%.

In the case of `Cn1nnn(-c2cccc(Cl)c2CON=C(c2ccccc2)C(F)(F)F)c1=O` [present compound 26, 1-[3-chloro-2-(2,2,2-trifluoro-1-phenylethylideneaminooxymethyl)phenyl]-4-methyl-1,4-dihydrotetrazol-5-one], the mortality at 500 ppm is at least 80%.

Compound `CC(=NOCc1c(C)cccc1-n1nnn(C)c1=O)c1ccccc1` [present compound 149, 1-[2-(1-phenylethylideneaminooxymethyl)-3-methylphenyl]-4-methyl-1,4-dihydrotetrazol-5-one] returned a mortality at 500 ppm of at least 80%.

Turning to `CC(=NOCc1c(C2CC2)cccc1-n1nnn(C)c1=O)c1cccc2c1CCC2` [present compound 125, 1-[3-cyclopropyl-2-(1-indan-4-ylethylideneaminooxymethyl)phenyl]-4-methyl-1,4-dihydrotetrazol-5-one], the mortality at 500 ppm is at least 80%.

Compound `CC(=NOCc1c(C)cccc1-n1nnn(C)c1=O)c1cccc(Cl)c1` [present compound 31, 1-{3-methyl-2-[1-(3-chlorophenyl)ethylideneaminooxymethyl]phenyl}-4-methyl-1,4-dihydrotetrazol-5-one] gave a mortality at 500 ppm of at least 80%.

Regarding `CC(=NOCc1c(C)cccc1-n1nnn(C)c1=O)c1cccc(C)c1` [present compound 71, 1-{3-methyl-2-[1-(3-methylphenyl)ethylideneaminooxymethyl]phenyl}-4-methyl-1,4-dihydrotetrazol-5-one], the mortality at 500 ppm is at least 80%.

With `CC(=NOCc1c(C)cccc1-n1nnn(C)c1=O)c1ccc2ccccc2c1` [present compound 36, 1-[3-methyl-2-(1-naphthalen-2-ylethylideneaminooxymethyl)phenyl]-4-methyl-1,4-dihydrotetrazol-5-one], the mortality at 500 ppm was at least 80%.

Consider `CC(=NOCc1c(C)cccc1-n1nnn(C)c1=O)c1cccc(N(C)C)c1` [present compound 109, 1-{2-[1-(3-dimethylaminophenyl)ethylideneaminooxymethyl]-3-methylphenyl}-4-methyl-1,4-dihydrotetrazol-5-one], for which the mortality at 500 ppm is at least 80%.

For `CC(=NOCc1c(-n2nnn(C)c2=O)cccc1C(F)(F)F)c1cccc(OC(F)(F)F)c1` [present compound 114, 1-{2-[1-(3-trifluoromethoxyphenyl)ethylideneaminooxymethyl]-3-trifluoromethylphenyl}-4-methyl-1,4-dihydrotetrazol-5-one], the mortality at 500 ppm is at least 80%.

Regarding `CC(=NOCc1c(Cl)cccc1-n1nnn(C)c1=O)c1cccc([N+](=O)[O-])c1` [present compound 6, 1-{3-chloro-2-[1-(3-nitrophenyl)ethylideneaminooxymethyl]phenyl}-4-methyl-1,4-dihydrotetrazol-5-one], the mortality at 500 ppm is at least 80%.

For `CC(=NOCc1c(Cl)cccc1-n1nnn(C)c1=O)c1cccc(OC(F)(F)C(F)F)c1` [present compound 9, 1-(3-chloro-2-{1-[3-(1,1,2,2-tetrafluoroethoxyl)phenyl]ethylideneaminooxymethyl]phenyl}-4-methyl-1,4-dihydrotetrazol-5-one], the mortality at 500 ppm is at least 80%.

As for `CC(=NOCc1c(C)cccc1-n1nnn(C)c1=O)c1cccc(OC(F)(F)F)c1` [present compound 32, 1-{3-methyl-2-[1-(3-trifluoromethoxyphenyl)ethylideneaminooxymethyl]phenyl}-4-methyl-1,4-dihydrotetrazol-5-one], the mortality at 500 ppm was at least 80%.

Compound `CC(=NOCc1c(C)cccc1-n1nnn(C)c1=O)c1cccc(OC(F)(F)C(F)F)c1` [present compound 33, 1-(3-methyl-2-{1-[3-(1,1,2,2-tetrafluoroethoxyl)phenyl]ethylideneaminooxymethyl}phenyl)-4-methyl-1,4-dihydrotetrazol-5-one] showed a mortality at 500 ppm of at least 80%.
